Reference: paper PMC11623267, “Inhibitors of malaria parasite cyclic nucleotide phosphodiesterases block asexual blood-stage development and mosquito transmission” (Science Advances, 2024)
Read-outs that look alike come from different tables or passages of the source.

Experiments:
[1] = test system: cGMP-PDE activity in gametocyte lysates (PDEα, PDEδ); assay: cGMP hydrolysis SPA in stage IV/V gametocyte membrane lysates; type: biochemical, Plasmodium falciparum; settings: gametocyte lysate; geometric mean ×/÷ geometric SD
Description: cGMP signaling is known to play an essential role in gametogenesis in Plasmodium ([19], [20], [28]). We therefore tested the effects of all newly synthesized analogs for their ability to inhibit cGMP hydrolysis in crude gametocyte membrane preparations. […] S5A. These findings were also consistent with our enzyme-linked immunosorbent assay (ELISA)–based measurement of elevated cGMP levels in gametocytes following incubation with an example of each subseries (Fig. 2A). […] The levels of cAMP detected in gametocytes were similar in dimethyl sulfoxide (DMSO)–, XA-, and inhibitor-treated samples, and we could detect little or no cAMP hydrolysis in mature gametocytes (fig. S5B). […]
The cyclic nucleotide hydrolytic activity of membrane-associated parasite PDE enzymes was measured by a scintillation proximity assay (SPA) ([18]) using lysates of mature P. falciparum schizonts or stage IV/V gametocytes. […] The IC50 values for the compounds were determined using threefold serial dilutions in duplicate. […] The reactions were terminated by addition of 25 μl of PDE SPA beads (PerkinElmer, RPNQ0150), and after 20 min of incubation at room temperature, scintillation was measured using a Wallac 1450 Microbeta Counter (PerkinElmer) for 30 s. […]

HepG2 cells = assay: HepG2 cytotoxicity; type: cell-based
Source text: Table 1. Key activity data for the three main chemical subseries against ABS parasites, parasite fractions, and HepG2 cells. ND, not determined; ×/÷ is the geometric mean with geometric SD. | column: HepG2 EC50 (nM) (selectivity index)

P. falciparum 3D7 = assay: Ex vivo 72-hour SYBR Green assay, 3D7 control (Uganda); type: cell-based, Plasmodium falciparum; settings: Ugandan ex vivo assay control; read-out: EC50 lab strain 3D7
Description: (§1) Samples were delivered to the adjacent IDRC laboratory at Tororo District Hospital or transported by car from Masafu Hospital on the day of collection for storage of blood spots on filter paper (for isolation of nucleic acids) and initiation of ex vivo culture of malaria parasites. […] Before assay, 10 mM antimalarial stock compounds were diluted as necessary in DMSO and stored at −20°C. […] Compounds were serially diluted threefold in a 96-well assay plate in complete medium to a final volume of 50 μl, in columns 1 to 10, with concentrations optimized to capture full dose-response curves. Column 11 contained compound-free controls, while column 12 contained uninfected human RBC controls. Parasite culture (150 μl) was added to columns 1 to 11 of the assay plate with a final volume of 200 μl per well, 0.2% parasitemia, and 2% hematocrit. […] Thawed plates were incubated with SYBR Green lysis buffer for 1 hour in the dark as previously reported ([62]). Fluorescence was quantified using a BMG Fluostar Optima plate reader at an excitation of 485 nm and an emission of 530 nm, and data were plotted using GraphPad Prism 7. The data were curve fit with a variable slope function to estimate IC50 values. For each isolate, a Z′ factor to assess assay quality was calculated from positive controls (eight drug-free wells) and negative controls (eight parasite-free, red cell control wells). Z′ values over 0.5 were considered good assays, but each curve was also examined by eye for suitability. Some assays with Z′ below 0.5 may be considered valid depending on factors such as the SE of the curve-fit IC50.

P. falciparum Dd2 = assay: Ex vivo 72-hour SYBR Green assay, Dd2 control (Uganda); type: cell-based, Plasmodium falciparum; settings: Ugandan ex vivo assay control; read-out: EC50 lab strain Dd2
Description: as §1

[2] = test system: P. falciparum clinical isolates from Tororo and Busia Districts of Uganda; assay: Ex vivo 72-hour SYBR Green assay, Ugandan clinical isolates; type: cell-based, Plasmodium falciparum; settings: 47 Ugandan isolates
Source text: Clinical isolates were from the Tororo District of Uganda, located in the central-eastern part of the county near the Kenya border. Tororo and surrounding areas have high-intensity, year-round malaria transmission. […] Patients reporting use of antimalarial treatment within the previous 30 days or with evidence of an infection with other Plasmodium species were excluded. Informed consent was obtained from patients and/or primary care givers (depending on age); children aged 8 to 17 years provided assent. Two to 5 ml of blood was collected by venipuncture in a heparin tube. Samples were delivered to the adjacent IDRC laboratory at Tororo District Hospital or transported by car from Masafu Hospital on the day of collections for storage of blood spots on filter paper (for isolation of nucleic acids) and initiation of ex vivo culture of malaria parasites. Treatment involved a standard therapeutic regimen for uncomplicated falciparum malaria, which was a 3-day course of the artemisinin-based combination therapy (ACT), artemether-lumefantrine. In Uganda, at the time of sampling, there was widespread resistance to the antifolate drugs due to mutant pfdhfr/pfdhps alleles. […] Chloroquine was prepared at 10 mM in water. Stock solutions were stored at −20°C. Working solutions were freshly prepared from a single aliquot within 4 hours of the susceptibility test and stored at 4°C.
as §1

**Q.** With `CCNC(=O)c1cnc(OCC(C)C)c(-c2nc3c(C(C)C)n[nH]c3c(=O)[nH]2)c1` [SAL-0010333] as the compound, how does the IC50 [1] read?
**A.** Its IC50 is 77.2 ± 1.8 nM.

**Q.** And the EC50 (HepG2 cells)?
**A.** The EC50 was > 25000 nM.

**Q.** What about the EC50 (P. falciparum 3D7) of the same compound?
**A.** Its EC50 is 223 nM.

**Q.** What about the EC50 (P. falciparum Dd2) of the same compound?
**A.** Its EC50 is 181 nM.

**Q.** And the EC50 ([2]; read-out: EC50 clinical isolates, Gmean (geometric mean))?
**A.** Its EC50 is 167 nM.

**Q.** What about the EC50 ([2]; read-out: EC50 clinical isolates, Median) of the same compound?
**A.** Its EC50 is 160 nM.
